# Assay results reported in PubChem BioAssay (NCI).
#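 Growth conditions: 96-well plates. Treatment: test compound, 48 hours, 5 concentrations. Analysis: linear interpolation between bracketing concentrations; unreached endpoints set to highest concentration. Definition used: TGI = concentration required for complete inhibition of growth.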
# Experiments:
# Assay in all cases: inhibition of tumour cell growth, NCI panel, 48 h
# M14 melanoma = tested on: M14 melanoma
# 786-0 renal = tested on: 786-0 renal
# HCT-116 colon = tested on: HCT-116 colon
# A549 NSCLC = tested on: A549 NSCLC
# CCRF-CEM leukemia = tested on: CCRF-CEM leukemia
# KM12 colon = tested on: KM12 colon
# BT-549 breast = tested on: BT-549 breast
# UACC-62 melanoma = tested on: UACC-62 melanoma
# UACC-257 melanoma = tested on: UACC-257 melanoma
# K-562 leukemia = tested on: K-562 leukemia
# SK-MEL-5 melanoma = tested on: SK-MEL-5 melanoma
# OVCAR-8 ovarian = tested on: OVCAR-8 ovarian
# NCI-H522 lung = tested on: NCI-H522 lung
# NCI-H226 lung = tested on: NCI-H226 lung
# HOP-62 NSCLC = tested on: HOP-62 NSCLC
# HOP-92 NSCLC = tested on: HOP-92 NSCLC
# SW-620 colon = tested on: SW-620 colon
# RPMI-8226 leukemia = tested on: RPMI-8226 leukemia
# NCI-H23 lung = tested on: NCI-H23 lung
# MDA-MB-231 breast = tested on: MDA-MB-231 breast
# MALME-3M melanoma = tested on: MALME-3M melanoma
# OVCAR-5 ovarian = tested on: OVCAR-5 ovarian
# T-47D breast = tested on: T-47D breast
# NCI/ADR-RES ovarian = tested on: NCI/ADR-RES ovarian
# MCF7 breast = tested on: MCF7 breast
# HS 578T breast = tested on: HS 578T breast
# U251 CNS = tested on: U251 CNS
# MDA-MB-435 = tested on: MDA-MB-435
# SNB-19 CNS = tested on: SNB-19 CNS
# EKVX NSCLC = tested on: EKVX NSCLC
# SN12C renal = tested on: SN12C renal
# OVCAR-3 ovarian = tested on: OVCAR-3 ovarian
# RXF 393 renal = tested on: RXF 393 renal
# IGROV1 ovarian = tested on: IGROV1 ovarian
# ACHN renal = tested on: ACHN renal
# MOLT-4 leukemia = tested on: MOLT-4 leukemia
# SR leukemia = tested on: SR leukemia
# SF-268 CNS = tested on: SF-268 CNS
# SK-OV-3 ovarian = tested on: SK-OV-3 ovarian
# SK-MEL-2 melanoma = tested on: SK-MEL-2 melanoma
# HT29 colon = tested on: HT29 colon
# UO-31 renal = tested on: UO-31 renal
# TK-10 renal = tested on: TK-10 renal
# SF-295 CNS = tested on: SF-295 CNS
# SK-MEL-28 melanoma = tested on: SK-MEL-28 melanoma
# MDA-N = tested on: MDA-N
# CAKI-1 renal = tested on: CAKI-1 renal
# OVCAR-4 ovarian = tested on: OVCAR-4 ovarian
# SF-539 CNS = tested on: SF-539 CNS
# PC-3 prostate = tested on: PC-3 prostate
# COLO 205 colon = tested on: COLO 205 colon
# NCI-H460 lung = tested on: NCI-H460 lung
# LOX IMVI melanoma = tested on: LOX IMVI melanoma
# HCT-15 colon = tested on: HCT-15 colon
# HCC-2998 colon = tested on: HCC-2998 colon
# DU-145 prostate = tested on: DU-145 prostate
smiles,measurement,setting,value
O=C(NCc1cccc(C(F)(F)F)c1)c1cc2sccc2nc1C(F)(F)F,TGI,M14 melanoma,> 100 µM
same,TGI,786-0 renal,73.7 µM
same,TGI,HCT-116 colon,> 100 µM
same,TGI,A549 NSCLC,> 100 µM
same,TGI,CCRF-CEM leukemia,> 100 µM
same,TGI,KM12 colon,> 100 µM
same,TGI,BT-549 breast,> 100 µM
same,TGI,UACC-62 melanoma,> 100 µM
same,TGI,UACC-257 melanoma,> 100 µM
same,TGI,K-562 leukemia,> 100 µM
same,TGI,SK-MEL-5 melanoma,> 100 µM
same,TGI,OVCAR-8 ovarian,> 100 µM
same,TGI,NCI-H522 lung,> 100 µM
same,TGI,NCI-H226 lung,> 100 µM
same,TGI,HOP-62 NSCLC,> 100 µM
same,TGI,HOP-92 NSCLC,> 100 µM
same,TGI,SW-620 colon,> 100 µM
same,TGI,RPMI-8226 leukemia,> 100 µM
same,TGI,NCI-H23 lung,> 100 µM
same,TGI,MDA-MB-231 breast,> 100 µM
same,TGI,MALME-3M melanoma,> 100 µM
same,TGI,OVCAR-5 ovarian,> 100 µM
same,TGI,T-47D breast,> 100 µM
same,TGI,NCI/ADR-RES ovarian,> 100 µM
same,TGI,MCF7 breast,> 100 µM
same,TGI,HS 578T breast,94.1 µM
same,TGI,U251 CNS,> 100 µM
same,TGI,MDA-MB-435,> 100 µM
same,TGI,SNB-19 CNS,> 100 µM
same,TGI,EKVX NSCLC,> 100 µM
same,TGI,SN12C renal,> 100 µM
same,TGI,OVCAR-3 ovarian,> 100 µM
same,TGI,RXF 393 renal,> 100 µM
same,TGI,IGROV1 ovarian,> 100 µM
same,TGI,ACHN renal,> 100 µM
same,TGI,MOLT-4 leukemia,> 100 µM
same,TGI,SR leukemia,> 100 µM
same,TGI,SF-268 CNS,> 100 µM
same,TGI,SK-OV-3 ovarian,> 100 µM
same,TGI,SK-MEL-2 melanoma,> 100 µM
same,TGI,HT29 colon,> 100 µM
same,TGI,UO-31 renal,> 100 µM
same,TGI,TK-10 renal,> 100 µM
same,TGI,SF-295 CNS,> 100 µM
same,TGI,SK-MEL-28 melanoma,> 100 µM
same,TGI,MDA-N,> 100 µM
same,TGI,CAKI-1 renal,> 100 µM
same,TGI,OVCAR-4 ovarian,> 100 µM
same,TGI,SF-539 CNS,> 100 µM
same,TGI,PC-3 prostate,> 100 µM
same,TGI,COLO 205 colon,> 100 µM
N#Cc1nc(CCCCCN2C(=O)c3ccccc3C2=O)oc1N,TGI,M14 melanoma,> 100 µM
same,TGI,NCI-H460 lung,> 100 µM
same,TGI,786-0 renal,> 100 µM
same,TGI,HCT-116 colon,> 100 µM
same,TGI,A549 NSCLC,> 100 µM
same,TGI,CCRF-CEM leukemia,74.5 µM
same,TGI,KM12 colon,> 100 µM
same,TGI,BT-549 breast,> 100 µM
same,TGI,UACC-257 melanoma,> 100 µM
same,TGI,K-562 leukemia,> 100 µM
same,TGI,SK-MEL-5 melanoma,> 100 µM
same,TGI,OVCAR-8 ovarian,> 100 µM
same,TGI,NCI-H522 lung,75.2 µM
same,TGI,NCI-H226 lung,> 100 µM
same,TGI,HOP-62 NSCLC,> 100 µM
same,TGI,SW-620 colon,> 100 µM
same,TGI,RPMI-8226 leukemia,> 100 µM
same,TGI,NCI-H23 lung,> 100 µM
same,TGI,MDA-MB-231 breast,> 100 µM
same,TGI,MALME-3M melanoma,> 100 µM
same,TGI,OVCAR-5 ovarian,> 100 µM
same,TGI,LOX IMVI melanoma,> 100 µM
same,TGI,T-47D breast,> 100 µM
same,TGI,NCI/ADR-RES ovarian,> 100 µM
same,TGI,MCF7 breast,> 100 µM
same,TGI,HS 578T breast,> 100 µM
same,TGI,U251 CNS,> 100 µM
same,TGI,MDA-MB-435,> 100 µM
same,TGI,SNB-19 CNS,> 100 µM
same,TGI,EKVX NSCLC,> 100 µM
same,TGI,SN12C renal,> 100 µM
same,TGI,OVCAR-3 ovarian,> 100 µM
same,TGI,RXF 393 renal,> 100 µM
same,TGI,IGROV1 ovarian,> 100 µM
same,TGI,ACHN renal,> 100 µM
same,TGI,MOLT-4 leukemia,> 100 µM
same,TGI,HCT-15 colon,> 100 µM
same,TGI,SR leukemia,> 100 µM
same,TGI,SF-268 CNS,> 100 µM
same,TGI,HCC-2998 colon,> 100 µM
same,TGI,SK-OV-3 ovarian,> 100 µM
same,TGI,SK-MEL-2 melanoma,> 100 µM
same,TGI,HT29 colon,> 100 µM
same,TGI,UO-31 renal,> 100 µM
same,TGI,TK-10 renal,> 100 µM
same,TGI,SF-295 CNS,> 100 µM
same,TGI,SK-MEL-28 melanoma,> 100 µM
same,TGI,MDA-N,> 100 µM
same,TGI,DU-145 prostate,> 100 µM
same,TGI,CAKI-1 renal,> 100 µM
same,TGI,OVCAR-4 ovarian,> 100 µM
same,TGI,SF-539 CNS,> 100 µM
same,TGI,PC-3 prostate,> 100 µM
same,TGI,COLO 205 colon,> 100 µM
